The experiment has as its target recombinant human Cathepsin S (Homo sapiens (Human), UniProt P25774). The experiment in a line: Cathepsin S assay procedure (fluorogenic substrate Z-Val-Val-Arg-AMC). The format is biochemical. Here is the method:
25 μl of a 2 mg/l solution of activated recombinant human cathepsin S, in assay buffer, is then added to the well, yielding a final inhibitor concentration of 10 μM.
Enzyme activity is determined by measuring the fluorescence of the liberated aminomethylcoumarin at […] using 390 nm excitation, at 20 minutes. Percentage enzyme activity is calculated by comparison of this activity to that of a solution containing no inhibitor.

The mark [1] stands for this setting: read-out: pIC50 (negative logarithm of the IC50 concentration) for inhibition of human cathepsin S (converted).
The mark [2] stands for this setting: pH5.5, fluorescence at 20 minutes, read-out: Cat S activity IC50.

Structures can show the parent of a compound that is named as a salt. Where two headings read alike, the source gives them in different places.

Chain of recombinant human Cathepsin S (P25774 115-331): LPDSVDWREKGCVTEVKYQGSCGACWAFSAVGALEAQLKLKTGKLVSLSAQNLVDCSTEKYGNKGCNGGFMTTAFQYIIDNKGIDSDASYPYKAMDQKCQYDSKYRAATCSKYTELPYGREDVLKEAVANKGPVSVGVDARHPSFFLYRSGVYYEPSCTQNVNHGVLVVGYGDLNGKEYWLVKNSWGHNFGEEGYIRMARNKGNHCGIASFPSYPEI

Consider `CCN(CC)CCCOc1ccc(-c2cc3c(nnn3C)c(C#N)n2)cc1C(F)(F)F` [Example 36q, 6-(4-(3-(diethylamino)propoxy)-3-(trifluoromethyl)phenyl)-1-methyl-1H-[1,2,3]triazolo[4,5-c]pyridine-4-carbonitrile], for which the IC50 under setting [1] was below 10 nM.
On the same count and under the same terms, the value for `CN(CCOc1ccc(-c2cc3c(nnn3C)c(C#N)n2)cc1C(F)(F)F)CC(=O)N(C)C` [Example 37m, 2-((2-(4-(4-cyano-1-methyl-1H-[1,2,3]triazolo[4,5-c]pyridin-6-yl)-2-(trifluoromethyl)phenoxy)ethyl)(methyl)amino)-N,N-dimethylacetamide] was below 10 nM; that for `Cn1nnc2c(C#N)nc(-c3ccc(OCc4ccc[n+]([O-])c4)c(C(F)(F)F)c3)cc21` [Example 23, methyl-6-(4-(1-N-oxy-pyridin-3-ylmethoxy)-3-(trifluoromethyl)phenyl)-1H-[1,2,3]triazolo[4,5-c]pyridine-4-carbonitrile] was below 10 nM.
Take `Cn1nnc2c(C#N)nc(-c3ccc(OCCC4CCNCC4)c(C(F)(F)F)c3)cc21` [Example 1, 1-methyl-6-(4-(2-(piperidin-4-yl)ethoxy)-3-(trifluoromethyl)phenyl)-1H-[1,2,3]triazolo[4,5-c]pyridine-4-carbonitrile]: the IC50 under setting [2] came out at 0.8 nM and the IC50 under setting [1] was below 10 nM.
In the case of `Cn1nnc2c(C#N)nc(-c3ccc(OCCN4CCS(=O)(=O)CC4)c(C(F)(F)F)c3)cc21` [Example 37p, 1-methyl-6-(4-(2-(4-S,S-dioxothiomorpholin-1-yl)ethoxy)-3-(trifluoromethyl)phenyl)-1H-[1,2,3]triazolo[4,5-c]pyridine-4-carbonitrile], the IC50 under setting [1] was below 10 nM.
The same measure, in the same setting: for `CN(C)C(=O)CN1CCC(CCOc2ncc(-c3cc4c(nnn4C)c(C#N)n3)cc2C(F)(F)F)CC1` [Example 27a, 6-(6-(2-(1-(2-Dimethylamino-2-oxo-ethyl)piperidin-4-yl)ethoxy)-5-(trifluoromethyl)pyridin-3-yl)-1-methyl-1H-[1,2,3]triazolo[4,5-c]pyridine-4-carbonitrile hydrochloride] the value was below 10 nM; for `Cn1nnc2c(C#N)nc(-c3ccc(OCc4cccnc4)c(C(F)(F)F)c3)cc21` [Example 22, 1-methyl-6-(4-(pyridin-3-ylmethoxy)-3-(trifluoromethyl)phenyl)-1H-[1,2,3]triazolo[4,5-c]pyridine-4-carbonitrile], below 10 nM.
Take `Cn1nnc2c(C#N)nc(-c3ccc(OCCC4CCN(CC(N)=O)CC4)c(C(F)(F)F)c3)cc21` [Example 2c, 6-(4-(2-(1-(2-amino-2-oxoethyl)piperidin-4-yl)ethoxy)-3-(trifluoromethyl)phenyl)-1-methyl-1H-[1,2,3]triazolo[4,5-c]pyridine-4-carbonitrile]: the IC50 under setting [1] is below 10 nM.
Consider `Cn1nnc2c(C#N)nc(-c3ccc(OCCN4CCNC(=O)C4)c(C(F)(F)F)c3)cc21` [Example 37r, 1-methyl-6-(4-(2-(3-oxopiperazin-1-yl)ethoxy)-3-(trifluoromethyl)phenyl)-1H-[1,2,3]triazolo[4,5-c]pyridine-4-carbonitrile], for which the IC50 under setting [1] is below 10 nM.
For `Cn1nnc2c(C#N)nc(-c3ccc(CCCO)c(C(F)(F)F)c3)cc21` [Example 44, 6-(4-(3-hydroxypropyl)-3-(trifluoromethyl)phenyl)-1-methyl-1H-[1,2,3]triazolo[4,5-c]pyridine-4-carbonitrile], the IC50 under setting [2] was 13 nM.
Regarding `Cn1nnc2c(C#N)nc(-c3ccc(OCCC4CCN(c5ccccn5)CC4)c(C(F)(F)F)c3)cc21` [Example 4a, 1-methyl-6-(4-(2-(1-(pyridin-2-yl)piperidin-4-yl)ethoxy)-3-(trifluoromethyl)phenyl)-1H-[1,2,3]triazolo[4,5-c]pyridine-4-carbonitrile hydrochloride], the IC50 under setting [1] is below 10 nM.

For the origin of these results see US9115126B2, “1H-[1,2,3]triazolo[4,5-c]pyridine-4-carbonitrile derivatives” (Merck Sharp & Dohme B.V., priority 2010, dated 2015).
